# Where two headings read alike, the source gives them in different places. Where a SMILES comes first, the peptide text is derived from it.
# What was measured:
# H2O2-damaged HepG2 cells = assay: Cytoprotection on H2O2-damaged HepG2 cells (MTT); format: cell-based, Human
# Protocol: […] Briefly, the HepG2 cells were incubated in a 96-well plate for 24 h. […] After removing peptides, H2O2 was added to the sample, GSH and model groups. After 24 h, the 96-wells were rinsed twice with PBS and used MTT method to determine the cell viability:Cell viability = (ODsample/ODcontrol) × 100%.
# pepsin and trypsin = assay: Stability in simulated gastrointestinal (GI) digestion, read out as O2−· scavenging activity; details: 2 h of pepsin digestion, peptide 5.0 mg/mL
# Protocol: The reaction was initiated by adding 1 mL of phenazine methosulphate (PMS) solution (120 μM) to the reaction mixture. The absorbance was measured at 560 nm against the corresponding blank after incubation for 5 min at 25 °C. The scavenging capacity of the O2−· was calculated using the following equation: O2−·scavengingactivity(%)=[(Ac−As)/Ac]×100%, where Ac is the absorbance without the sample and As is the absorbance with the sample.
# [1] = cited from earlier work
# Source text: DPPH· is a very stable radical and is commonly used as a substrate to assess antioxidant activity. MSP7 and MSP8 have a strong hydrogen donating capacity and can reduce stable DPPH·.
# [2] = cited from earlier work; remark: listed apart in the source
# Source text: HO· is a kind of strong free radical, which can not only cause lipid peroxidation in vivo but also attack polysaccharides, nucleic acids and other macromolecules, causing serious damage to cells.
# [3] = cited from earlier work; remark: listed apart in the source
# Source text: O2−· reacts with metal ions in the Fenton reaction to form HO· that triggers lipid peroxidation and causes oxidative damage to cells. MSP1, MSP2, MSP8, MSP10 and MSP13 have a strong ability to scavenge O2−· .
# [4] = cited from earlier work; remark: listed apart in the source
# Source text: ABTS^+· is a single oxygen ion radical with an absorption peak at 734 nm, which can be reduced by antioxidants leading to a decrease in absorbance.
# [5] = APs from seaweed (Eucheuma cottonii)
# [6] = APs from tuna (Katsuwonus pelamis) cardiac arterial bulbs
# [7] = APs from tuna cardiac arterial bulbs
# [8] = APs from Spanish mackerel (Scomberomorous niphonius) skin
# [9] = APs from Antarctic krill (Euphausia superba)
# [10] = APs from skin (printed after monkfish muscle)
compound,measurement,setting,value
"N[C@@H](Cc1ccc(O)cc1)C(=O)N[C@@H](CC(=O)O)C(=O)N[C@@H](Cc1ccc(O)cc1)C(=O)N[C@@H](CC(=O)O)C(=O)O [MSP1, Tyr-Asp-Tyr-Asp] (H-YDYD-OH)",viability of H2O2-injured HepG2 cells,"H2O2-damaged HepG2 cells; peptide at 200 μmol/L, 8 h pre-incubation, then H2O2 (300 µM) 24 h, MTT, mean ± SD of triplicate, model group 51.08 ± 1.97%",82.14 ± 3.28%
"NC(=O)CC[C@H](N)C(=O)N[C@@H](CC(=O)O)C(=O)N[C@@H](Cc1ccc(O)cc1)C(=O)N[C@@H](CC(=O)O)C(=O)O [MSP2, Gln-Asp-Tyr-Asp] (H-QDYD-OH)","Declined percentage of O2−· scavenging activity, Treated with Pepsin",pepsin and trypsin,−15.13%
"N=C(N)NCCC[C@H](NC(=O)CN)C(=O)N[C@@H](Cc1c[nH]c2ccccc12)C(=O)O [MSP7, Gly-Arg-Trp] (H-Gly-Arg-Trp-OH)","Declined percentage of O2−· scavenging activity, Treated with Pepsin",pepsin and trypsin,−24.34%
"C[C@H](N)C(=O)N[C@@H](CCCNC(=N)N)C(=O)N[C@@H](Cc1c[nH]c2ccccc12)C(=O)O [MSP8, Ala-Arg-Trp] (H-Ala-Arg-Trp-OH)",viability of H2O2-injured HepG2 cells,"H2O2-damaged HepG2 cells; 8 h, 200 μmol/L",81.32 ± 2.45%
same,"Declined percentage of O2−· scavenging activity, Treated with Pepsin",pepsin and trypsin,−24.93%
"NCCCC[C@H](NC(=O)CNC(=O)CNC(=O)[C@H](CC(=O)O)NC(=O)[C@@H](N)CC(=O)O)C(=O)O [MSP10, Asp-Asp-Gly-Gly-Lys] (H-DDGGK-OH)","Declined percentage of O2−· scavenging activity, Treated with Pepsin",pepsin and trypsin,−21.98%
EDIVCW [literature AP from monkfish muscle],EC50 on DPPH·,[1]; APs from monkfish muscle,390 µg/mL
same,EC50 on HO·,[2]; APs from monkfish muscle,610 µg/mL
same,EC50 on O2−·,[3]; APs from monkfish muscle,760 µg/mL
FYKA [literature AP from seaweed (Eucheuma cottonii)],EC50 on DPPH·,[1]; [5],2560 µg/mL
same,EC50 on O2−·,[3]; APs from seaweed,1910 µg/mL
GEGQR [literature AP from tuna (Katsuwonus pelamis) cardiac arterial bulbs],EC50 on DPPH·,[1]; [6],2257 µg/mL
same,EC50 on O2−·,[3]; [7],2143 µg/mL
same,EC50 on ABTS^+·,[4]; [7],1218 µg/mL
GEQSN [literature AP from tuna (Katsuwonus pelamis) cardiac arterial bulbs],EC50 on DPPH·,[1]; [6],2054 µg/mL
same,EC50 on O2−·,[3]; [7],1857 µg/mL
GHHAAA [literature AP from tuna milt (also printed under tuna roes)],EC50 on ABTS^+·,[4]; APs from tuna milt,1120 µg/mL
GPTGE [literature AP from Spanish mackerel (Scomberomorous niphonius) skin],EC50 on DPPH·,[1]; [8],1420 µg/mL
IDSQ [literature AP from Antarctic krill (Euphausia superba)],EC50 on HO·,[2]; [9],2570 µg/mL
same,EC50 on O2−·,[3]; APs from Antarctic krill,1450 µg/mL
IEEEQ [literature AP from red stingray (Dasyatis akajei) cartilages],EC50 on ABTS^+·,[4]; APs from red stingray (Dasyatis akajei) cartilages,180 µg/mL
PSYV [literature AP from loach (Misgurnus anguillicaudatus) meat],EC50 on HO·,[2]; AP from loach (Misgurnus anguillicaudatus) meat,2640 µg/mL
PYFK [literature AP from scalloped hammerhead sharks (Sphyrna lewini) muscle],EC50 on DPPH·,[1]; APs from scalloped hammerhead sharks (Sphyrna lewini) muscle,4110 µg/mL
same,EC50 on ABTS^+·,[4]; APs from scalloped hammerhead sharks muscle,120 µg/mL
PYGAKG [literature AP from Spanish mackerel (Scomberomorous niphonius) skin],EC50 on DPPH·,[1]; [8],3020 µg/mL
SMDV [literature AP from tuna milt (also printed under tuna roes)],EC50 on ABTS^+·,[4]; APs from tuna milt,1160 µg/mL
VEKT [literature AP from Antarctic krill (Euphausia superba)],EC50 on HO·,[2]; [9],1530 µg/mL
same,EC50 on O2−·,[3]; APs from Antarctic krill,860 µg/mL
VGGRP [literature AP from grass carp (Ctenopharyngodon idella) skin],EC50 on HO·,[2]; AP from grass carp (Ctenopharyngodon idella) skin,2060 µg/mL
YGPM [literature AP from Spanish mackerel skin],EC50 on DPPH·,[1]; [8],720 µg/mL
same,EC50 on HO·,[2]; [10],880 µg/mL
same,EC50 on O2−·,[3]; [10],730 µg/mL
same,EC50 on ABTS^+·,[4]; APs from monkfish skin as printed,820 µg/mL
YSKT [literature AP from seaweed (Eucheuma cottonii)],EC50 on DPPH·,[1]; [5],1710 µg/mL
YWDAW [literature AP from monkfish muscle],EC50 on DPPH·,[1]; APs from monkfish muscle,510 µg/mL
same,EC50 on HO·,[2]; APs from monkfish muscle,320 µg/mL
same,EC50 on O2−·,[3]; APs from monkfish muscle,480 µg/mL
